As a reminder, the IC50 is the concentration at which inhibition is half-maximal. The term EC50 denotes the midpoint of the concentration-response curve.

In assay [1] the test system is CCL17 secretion in peripheral human whole blood. The assay is described as follows: Human Whole Blood (HWB) CCL17 TR-FRET Assay (IL-13 stimulated CCL17 secretion). Format: cell-based. The note with it: Homo sapiens, 48 h, human whole blood, 10 ng/mL IL13, 48 hours. The method in brief:
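Compounds are titrated (11 points, 3-fold, duplicate) into fresh heparinized human whole blood and held 2 h at 37 °C before IL-13 challenge (10 ng/mL final). After 48 h at 37 °C, serum CCL17 is measured by TR-FRET sandwich assay and IC50 values are calculated.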
A general note: In TR-FRET formats the signal depends on donor and acceptor labels being close together.

Another assay has as its target T1, STAT6 (Homo sapiens, UniProt P42226).
T1 construct: stably transfected HaCaT keratinocyte cell line, which expresses NanoLuc luciferase reporter gene under the transcriptional control of the STAT6 responsive promoter; endogenous in cells; host or cells: HaCaT keratinocyte reporter cell line (stably transfected with a NanoLuc reporter)
T1 sequence (P42226 1-847): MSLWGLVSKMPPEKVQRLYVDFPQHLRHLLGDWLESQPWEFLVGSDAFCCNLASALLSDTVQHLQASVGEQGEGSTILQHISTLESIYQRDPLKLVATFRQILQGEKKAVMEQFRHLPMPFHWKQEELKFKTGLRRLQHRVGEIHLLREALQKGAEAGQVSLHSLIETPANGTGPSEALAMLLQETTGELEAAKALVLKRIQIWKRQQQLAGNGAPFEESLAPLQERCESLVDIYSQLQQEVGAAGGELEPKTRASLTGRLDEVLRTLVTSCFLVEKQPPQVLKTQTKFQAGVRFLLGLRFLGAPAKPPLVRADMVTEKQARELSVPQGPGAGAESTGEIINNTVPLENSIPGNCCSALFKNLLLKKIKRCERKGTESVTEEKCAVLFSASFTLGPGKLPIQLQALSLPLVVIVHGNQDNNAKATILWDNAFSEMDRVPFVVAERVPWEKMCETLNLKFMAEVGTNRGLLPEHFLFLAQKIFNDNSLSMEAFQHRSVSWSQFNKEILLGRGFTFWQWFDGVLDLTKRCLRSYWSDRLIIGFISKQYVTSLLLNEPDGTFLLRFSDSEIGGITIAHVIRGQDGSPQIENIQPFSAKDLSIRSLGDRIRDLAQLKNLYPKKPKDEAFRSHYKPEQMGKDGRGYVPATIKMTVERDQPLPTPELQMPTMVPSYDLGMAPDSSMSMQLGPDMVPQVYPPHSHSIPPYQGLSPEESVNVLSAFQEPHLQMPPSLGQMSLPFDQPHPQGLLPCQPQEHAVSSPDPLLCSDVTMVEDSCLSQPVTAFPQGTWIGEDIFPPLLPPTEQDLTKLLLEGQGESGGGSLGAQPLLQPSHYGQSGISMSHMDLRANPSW
In words: STAT6 Reporter Luciferase Assay (IL-13 stimulated HaCaT keratinocyte NanoLuc reporter cells). It is filed as cell-based. The settings on record: IL-13 stimulated HaCaT STAT6 NanoLuc reporter cells; read-out: Reporter EC50. In a few lines: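 Luminescence from a NanoLuc reporter driven by the STAT6-responsive IL-13Ra2 promoter in HaCaT keratinocytes serves as the read-out. Compounds are given 2 h before a 4 h stimulation with 0.12 nM IL-13.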

SMILES strings stand for the structures.

For `CC(C)n1nc(C(=O)NCc2ccc(NC(=O)N3CCC(CC4CCNCC4)CC3)cc2)c2c1[C@@H](C)CN(c1ccc(C(=O)N(C)C)cc1)C2` [Example 624, (S)-5-(4-(dimethylcarbamoyl)phenyl)-1-isopropyl-7-methyl-N-(4-(4-(piperidin-4-ylmethyl)piperidine-1-carboxamido)benzyl)-4,5,6,7-tetrahydro-1H-pyrazolo[4,3-c]pyridine-3-carboxamide], half-maximal inhibition in assay [1] (IC50) was put at 18 nM. In addition, at STAT6, the EC50 amounted to 1 nM.

As to `CC(C)n1nc(C(=O)NCc2ccc(NC(=O)N3CCC4(CCNCC4)CC3)cc2)c2c1[C@@H](C)CN(c1ccc(C(=O)N(C)C)cc1)C2` [Example 625, (S)-N-(4-((5-(4-(dimethylcarbamoyl)phenyl)-1-isopropyl-7-methyl-4,5,6,7-tetrahydro-1H-pyrazolo[4,3-c]pyridine-3-carboxamido)methyl)phenyl)-3,9-diazaspiro[5.5]undecane-3-carboxamide], the half-inhibitory concentration (IC50) in assay [1] was 24 nM. Besides, at STAT6, the 50% effective concentration (EC50) is 10 nM.

In assay [1], `CC(C)n1nc(C(=O)NCc2ccc(NC(=O)N3CC4(CCNCC4)C3)cc2)c2c1[C@@H](C)CN(c1ccc(C(=O)N(C)C)cc1)C2` [Example 626, (S)-N-(4-(2,7-diazaspiro[3.5]nonane-2-carboxamido)benzyl)-5-(4-(dimethylcarbamoyl)phenyl)-1-isopropyl-7-methyl-4,5,6,7-tetrahydro-1H-pyrazolo[4,3-c]pyridine-3-carboxamide] yielded a concentration for half-maximal inhibition (IC50) of 88 nM. Moreover, the EC50 on STAT6 turned out to be 38 nM.

`CC(C)n1nc(C(=O)NCc2ccc(NC(=O)N3CC(N)C3)cc2)c2c1[C@@H](C)CN(c1ccc(C(=O)N(C)C)cc1)C2` [Example 627, (S)-N-(4-(3-aminoazetidine-1-carboxamido)benzyl)-5-(4-(dimethylcarbamoyl)phenyl)-1-isopropyl-7-methyl-4,5,6,7-tetrahydro-1H-pyrazolo[4,3-c]pyridine-3-carboxamide] returned an IC50 in assay [1] of 23 nM. In addition, the EC50 on STAT6 worked out at 7 nM.

The molecule `CC(C)n1nc(C(=O)NCc2ccc(NC(=O)N3CCC4(CC3)CNCCO4)cc2)c2c1[C@@H](C)CN(c1ccc(C(=O)N(C)C)cc1)C2` [Example 628, (S)-N-(4-((5-(4-(dimethylcarbamoyl)phenyl)-1-isopropyl-7-methyl-4,5,6,7-tetrahydro-1H-pyrazolo[4,3-c]pyridine-3-carboxamido)methyl)phenyl)-1-oxa-4,9-diazaspiro[5.5]undecane-9-carboxamide] gave an IC50 in assay [1] of 4 nM. Moreover, the EC50 on STAT6 turned out to be 1 nM.

In the case of `CC(C)n1nc(C(=O)NCc2ccc(NC(=O)N(C)C)cc2)c2c1[C@@H](C)CN(c1ccc(C(=O)N(C)CC3CN(C)C3)cc1)C2` [Example 629, (S)-N-(4-(3,3-dimethylureido)benzyl)-1-isopropyl-7-methyl-5-(4-(methyl((1-methylazetidin-3-yl)methyl)carbamoyl)phenyl)-4,5,6,7-tetrahydro-1H-pyrazolo[4,3-c]pyridine-3-carboxamide], the IC50 in assay [1] was 390 nM. For the same molecule, the concentration giving a half-maximal response (EC50) on STAT6 is 121 nM.

The molecule `CC(C)n1nc(C(=O)NCc2ccc(NC(=O)N3CCNCC3)cc2Cl)c2c1[C@@H](C)CN(c1ccc(C(=O)N(C)C)cc1)C2` [Example 630, (S)-N-(2-chloro-4-(piperazine-1-carboxamido)benzyl)-5-(4-(dimethylcarbamoyl)phenyl)-1-isopropyl-7-methyl-4,5,6,7-tetrahydro-1H-pyrazolo[4,3-c]pyridine-3-carboxamide] yielded an IC50 in assay [1] of 55 nM. The 50% effective concentration (EC50) at STAT6 worked out at 9 nM.

Take `CC(C)n1nc(C(=O)NCc2ccc(NC(=O)N3CCN(C)CC3)cc2)c2c1[C@@H](C)CN(c1ccc(-n3nccn3)cn1)C2` [Example 631, (S)-5-(5-(2H-1,2,3-triazol-2-yl)pyridin-2-yl)-1-isopropyl-7-methyl-N-(4-(4-methylpiperazine-1-carboxamido)benzyl)-4,5,6,7-tetrahydro-1H-pyrazolo[4,3-c]pyridine-3-carboxamide]: in assay [1], the IC50 is 24 nM. The EC50 at STAT6 stood at 1 nM.

For `CC(C)n1nc(C(=O)NCc2ccc(NC(=O)N3CC4(CCN(C)CC4)C3)c(F)c2)c2c1[C@@H](C)CN(c1ccc(-n3ccccc3=O)cn1)C2` [Example 632, (S)-N-(3-fluoro-4-(7-methyl-2,7-diazaspiro[3.5]nonane-2-carboxamido)benzyl)-1-isopropyl-7-methyl-5-(2-oxo-2H-[1,3′-bipyridin]-6′-yl)-4,5,6,7-tetrahydro-1H-pyrazolo[4,3-c]pyridine-3-carboxamide], the midpoint of inhibition in assay [1], the IC50, lay at 39 nM. Also, the EC50 on STAT6 was determined as 5 nM.

The molecule `CC(C)n1nc(C(=O)NCc2ccc(NC(=O)N3CCC4(CC3)CN(C)C4)cc2)c2c1[C@@H](C)CN(c1ccc(-n3ccccc3=O)cn1)C2` [Example 633, (S)-1-isopropyl-7-methyl-N-(4-(2-methyl-2,7-diazaspiro[3.5]nonane-7-carboxamido)benzyl)-5-(2-oxo-2H-[1,3′-bipyridin]-6′-yl)-4,5,6,7-tetrahydro-1H-pyrazolo[4,3-c]pyridine-3-carboxamide] registered an IC50 in assay [1] of 13 nM. Moreover, at STAT6, the EC50 is 2 nM.

Molecule `CC(C)n1nc(C(=O)NCc2ccc(NC(=O)N3CC4(CCN(C)CC4)C3)cc2)c2c1[C@@H](C)CN(c1ccc(-n3ccccc3=O)cn1)C2` [Example 634, (S)-1-isopropyl-7-methyl-N-(4-(7-methyl-2,7-diazaspiro[3.5]nonane-2-carboxamido)benzyl)-5-(2-oxo-2H-[1,3′-bipyridin]-6′-yl)-4,5,6,7-tetrahydro-1H-pyrazolo[4,3-c]pyridine-3-carboxamide] had a concentration for half-maximal inhibition (IC50) in assay [1] of 29 nM. Besides, the half-maximal effective concentration (EC50) at STAT6 is 4 nM.

The molecule `CC(C)n1nc(C(=O)NCc2ccc(NC(=O)N(C)C)cc2)c2c1[C@@H](C)CN(c1ccc(C(=O)N(C)CC3CCN(C)CC3)cc1)C2` [Example 635, (S)-N-(4-(3,3-dimethylureido)benzyl)-1-isopropyl-7-methyl-5-(4-(methyl((1-methylpiperidin-4-yl)methyl)carbamoyl)phenyl)-4,5,6,7-tetrahydro-1H-pyrazolo[4,3-c]pyridine-3-carboxamide] yielded an IC50 in assay [1] of 71 nM. Besides, on STAT6, the EC50 was found to be 14 nM.

The molecule `CC(C)n1nc(C(=O)NCc2ccc(NC(=O)N(C)C)cc2)c2c1[C@@H](C)CN(c1ccc(C(=O)N(C)CCN3CCOCC3)cc1)C2` [Example 636, (S)-N-(4-(3,3-dimethylureido)benzyl)-1-isopropyl-7-methyl-5-(4-(methyl(2-morpholinoethyl)carbamoyl)phenyl)-4,5,6,7-tetrahydro-1H-pyrazolo[4,3-c]pyridine-3-carboxamide] returned an IC50 in assay [1] of 33 nM. For the same molecule, the 50% effective concentration (EC50) at STAT6 was determined as 3 nM.

`CC(C)n1nc(C(=O)NCc2ccc(NC(=O)N(C)C)cc2)c2c1[C@@H](C)CN(c1ccc(C(=O)N(C)CC3CCNCC3)cc1)C2` [Example 637, (S)-N-(4-(3,3-dimethylureido)benzyl)-1-isopropyl-7-methyl-5-(4-(methyl(piperidin-4-ylmethyl)carbamoyl)phenyl)-4,5,6,7-tetrahydro-1H-pyrazolo[4,3-c]pyridine-3-carboxamide] came in with a half-inhibitory concentration (IC50) in assay [1] of 48 nM. Besides, the EC50 at STAT6 stood at 13 nM.

In the case of `COCC1(N)CCN(C(=O)Nc2ccc(CNC(=O)c3nn(C(C)C)c4c3CN(c3ccc(C(=O)N(C)C)cc3)C[C@@H]4C)cc2)CC1` [Example 638, (S)-N-(4-(4-amino-4-(methoxymethyl)piperidine-1-carboxamido)benzyl)-5-(4-(dimethylcarbamoyl)phenyl)-1-isopropyl-7-methyl-4,5,6,7-tetrahydro-1H-pyrazolo[4,3-c]pyridine-3-carboxamide], the IC50 in assay [1] is 4 nM. At STAT6, the concentration giving a half-maximal response (EC50) amounted to 1 nM.

`COCC1(N)CCN(C(=O)Nc2ccc(CNC(=O)c3nn(C(C)C)c4c3CN(c3ccc(C(=O)N(C)C)cc3)C[C@@H]4C)cc2F)CC1` [Example 639, (S)-N-(4-(4-amino-4-(methoxymethyl)piperidine-1-carboxamido)-3-fluorobenzyl)-5-(4-(dimethylcarbamoyl)phenyl)-1-isopropyl-7-methyl-4,5,6,7-tetrahydro-1H-pyrazolo[4,3-c]pyridine-3-carboxamide]: in assay [1], the half-maximal inhibitory concentration (IC50) worked out at 8 nM. For the same molecule, the EC50 at STAT6 amounted to 1 nM.

Source of the values: US20250320213A1, “Nitrogen-Containing Heterocyclic Compounds” (Pfizer Inc., priority 2024, published 2025).
